pIC50: −log10 of the molar value.
System: platelet aggregation (Dog PRP)
Assay: In-Vitro Platelet Aggregation in PRP (ADP-induced, dog platelet-rich plasma)
Assay type: cell-based
Settings: Canis lupus familiaris, ADP 50 um final concentration; for pIC50: linear regression of dose response curve, read-out: IC50 (dosage at which 50% of platelet aggregation is inhibited)
Protocol: Healthy male or female dogs were fasted for 8 hours prior to drawing blood; then 30 ml whole blood was collected using a butterfly needle and 30 cc plastic syringe with 3 ml or 0.129M buffered sodium citrate (3.8%). The syringe was rotated carefully as blood was drawn to mix the citrate. Platelet-rich plasma (PRP) was prepared by centrifugation at 975 x g for 3.17 minutes at room temperature allowing the centrifuge to coast to a stop without braking. The PRP was removed from the blood with a plastic pipette and placed in a plastic capped, 50 mL Corning conical sterile centrifuge tube which was held at room temperature. Platelet poor plasma (PPP) was prepared by centrifuging the remaining blood at 2000 x g for 15 minutes at room temperature allowing the centrifuge to coast to a stop without braking. The PRP was adjusted with PPP to a count of 2-3×10^8 platelets per mL. 400 uL of the PRP preparation and 50 uL of the compounds solution to be tested or saline were preincubated for 1 minute at 37° C. in a […].). 50 uL of adenosine 5' diphosphate (ADP) (50 um final concentration) was added to the cuvettes and the aggregation was monitored for 1 minute. All compounds are tested in duplicate. Results are calculated as follows: Percent of control=[(maximal OD minus initial OD of compound) divided by (maximal OD minus initial OD of control saline)]×100. The % inhibition=100-(percent of control).
The compounds tested and their median inhibitory concentrations (IC50) are recorded in Table I. IC50 's (dosage at which 50% of platelet aggregation is inhibited) were calculated by linear regression of the dose response curve.

Structure (SMILES) | inhibition at 10 µM (compound at 10^-5 M, read-out: % Inh. (inhibition of platelet aggregation)) [%] | pIC50
N=C(N)c1ccc(CNc2cccc(C(=O)NCCC(=O)O)c2)cc1 [Example 2, β-[[3-[4-(aminoiminomethyl)benzyl]aminobenzoyl]amino]propanoic acid] | 28 | 
N=C(N)c1ccc(CNc2cccc(C(=O)NC(CC(=O)O)c3cccnc3)c2)cc1 (stereo not drawn) [Example 4, β-[[3-[4-(aminoiminomethyl)benzyl]aminobenzoyl]amino]-3-pyridinepropanoic acid] |  | 5.17
N=C(N)c1ccc(CNCCC(=O)NC(CC(=O)O)c2cccnc2)cc1 (stereo not drawn) [Example 6, β-[[3-[4-(aminoiminomethyl)benzyl]aminopropanoyl]amino]-3-pyridinepropanoic acid] |  | 6.10

Source: patent US5710166A, “N-acyl beta amino acid derivatives useful as platelet aggregation inhibitors” (The Monsanto Company, priority 1995, dated 1998)
